Measured values from PMC12808645 (Nature Communications, 2025).

How the values were obtained:
Nan-Iav = format: cell-based, Halyomorpha halys
NanY172A-Iav [1] = format: binding, Halyomorpha halys
NanY177A-Iav [2] = format: binding, Halyomorpha halys
NanY177A-Iav [3] = assay: Whole-cell electrophysiology, NanY177A-Iav; format: cell-based, Halyomorpha halys
NanY172F-Iav [4] = format: binding, Halyomorpha halys
NanY177F-Iav [5] = format: binding, Halyomorpha halys
NanY172A-Iav [6] = format: binding, Halyomorpha halys; remark: listed apart in the source
NanY177F-Iav [7] = format: binding, Halyomorpha halys; remark: listed apart in the source
NanY172F-Iav [8] = format: binding, Halyomorpha halys; remark: listed apart in the source
NanY177A-Iav [9] = format: binding, Halyomorpha halys; remark: listed apart in the source

[Ca+2] [Ca^2+] was tested, and the “% inhibition of inward current” value (Nan-Iav) was ~ 50% and the “% inhibition of outward current” value (Nan-Iav) was ~ 20%.

NC(=O)c1cccnc1 [NAM, nicotinamide] was tested, and the “raising of Ki for NAM relative to WT” value (NanY172A-Iav [1]) was “two orders of magnitude”, the “lowering of NAM binding affinity relative to WT” value (NanY177A-Iav [2]) was greater than 100 fold and the Ki (NanY177A-Iav [2]; read-out: Ki NAM, competition with [3H]-AP, affinities exceeding 10 mM could not be accurately determined) was greater than 10000 µM. The NAM-induced channel activity (NanY177A-Iav [3]) was “abolishes”, the “effect on whole-cell current” value (Nan-Iav; 1 mM NAM, ±60 mV) was “robustly stimulated” and the “desensitization and reversibility of evoked currents” value (Nan-Iav; prolonged or repeated application, washout) was “non-desensitizing upon prolonged or repeated application and are reversible upon washout”. For the same molecule, the EC50 (Nan-Iav; read-out: apparent EC50) was roughly 100 µM, the “increase of Ki for NAM relative to WT” value (NanY172F-Iav [4]) was ~ 10 fold and the “weaker NAM affinity than WT” value (NanY177F-Iav [5]) was ~ 10 fold.

For C[C@]1(COC(=O)C2CC2)[C@@H]2C[C@H](O)[C@@]3(C)Oc4cc(-c5cccnc5)oc(=O)c4[C@H](O)[C@@H]3[C@@]2(C)CC[C@@H]1OC(=O)C1CC1 [[^3H]-AP], the “increase in [3H]-AP Kd relative to WT” value (NanY172A-Iav [6]) was ~ 100 fold, the “[3H]-AP Kd compared with WT” value (NanY177F-Iav [7]) was “similar” and the “difference in [3H]-AP Kd relative to WT” value (NanY172F-Iav [8]) was 3 fold. The “greater [3H]-AP Kd than WT” value (NanY177A-Iav [9]) was ~ 200 fold.

With N.N.N.N.N.N.N.N.N.N.N.N.N.N.[Cl-].[Cl-].[Cl-].[Cl-].[Cl-].[Cl-].[O-2].[O-2].[Ru+3].[Ru+3].[Ru+4] [ruthenium red] the “effect on AP-elicited current” value (Nan-Iav; pore blocker) was “inhibited”.
